According to US20230257351A1, “SUBSTITUTED N-[…] HAVING P2X4 RECEPTOR ANTAGONISTIC ACTIVITY” (Bayer Aktiengesellschaft, priority 2020, published 2023):

Biological target: T1, human P2X4 (Homo sapiens, UniProt Q99571)
T1 construct: expressed in transfected cells
T1 sequence (Q99571 1-388): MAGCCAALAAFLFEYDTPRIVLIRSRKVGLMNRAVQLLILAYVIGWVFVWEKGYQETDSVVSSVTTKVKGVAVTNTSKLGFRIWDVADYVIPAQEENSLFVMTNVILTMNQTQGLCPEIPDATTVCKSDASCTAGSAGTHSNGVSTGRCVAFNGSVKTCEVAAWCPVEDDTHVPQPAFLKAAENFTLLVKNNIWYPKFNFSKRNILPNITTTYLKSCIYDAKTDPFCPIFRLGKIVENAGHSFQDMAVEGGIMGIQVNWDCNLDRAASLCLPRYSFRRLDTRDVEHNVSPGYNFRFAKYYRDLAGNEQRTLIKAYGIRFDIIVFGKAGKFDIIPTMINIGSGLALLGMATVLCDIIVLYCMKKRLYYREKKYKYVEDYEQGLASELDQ
Experiment: Human P2X4 HEK Cell FLIPR Assay
Assay type: cell-based
Conditions: HEK293 stably expressing human P2X4, agonist Bz-ATP 3 μM (EC80); for IC50: read-out: Human P2X4 HEK Cells (FLIPR Assay) avg IC50
Outline: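 Compounds were preincubated 30 min at room temperature on Fluo8-AM-loaded HEK293 cells stably expressing human P2X4. The response was the calcium fluorescence rise on Bz-ATP addition.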

| Human P2X4 HEK Cells (FLIPR Assay) avg Efficacy [%] | IC50 [µM] | SMILES |
| --- | --- | --- |
| 104 | 0.577 | COc1cc(F)cc(N(C(C)=O)c2cc(NC(=O)Cc3c(Cl)cccc3Cl)ccn2)c1 [Example 162, N-{4-[2-(2,6-Dichlorphenyl)acetamido]pyridin-2-yl}-N-(3-fluor-5-methoxyphenyl)acetamide] |
| 100 | 0.683 | COc1cc(F)cc(N(C(C)=O)c2cc(NC(=O)Cc3c(F)cccc3Cl)ccn2)c1 [Example 164, N-{4-[2-(2-Chlor-6-fluorphenyl)acetamido]pyridin-2-yl}-N-(3-fluor-5-methoxyphenyl)acetamide] |
| 99 | 0.402 | CC(=O)N(c1cc(NC(=O)Cc2c(Cl)cccc2Cl)ccn1)c1ccccc1C(F)F [Example 165, N-{4-[2-(2,6-Dichlorphenyl)acetamido]pyridin-2-yl}-N-[2-(difluormethyl)phenyl]acetamide] |
| 99 | 0.761 | CC(=O)N(c1cc(NC(=O)Cc2c(F)cccc2Cl)ccn1)c1ccccc1C(F)F [Example 168, N-{4-[2-(2-Chlor-6-fluorphenyl)acetamido]pyridin-2-yl}-N-[2-(difluormethyl)phenyl]acetamide] |
| 104 | 0.468 | CC(=O)N(c1cc(NC(=O)Cc2ccccc2Cl)ccn1)c1ccc(C)cc1C [Example 170, N-{4-[2-(2-Chlorphenyl)acetamido]pyridin-2-yl}-N-(2,4-dimethylphenyl)acetamide] |
| 103 | 0.511 | CC(=O)N(c1cc(NC(=O)Cc2cccc(F)c2Cl)ccn1)c1ccc(C)cc1C [Example 171, N-{4-[2-(2-Chlor-3-fluorphenyl)acetamido]pyridin-2-yl}-N-(2,4-dimethylphenyl)acetamide] |
| 104 | 0.52 | CC(=O)N(c1cc(NC(=O)Cc2c(F)cccc2Cl)ccn1)c1ccc(C)cc1C [Example 172, N-{4-[2-(2-Chlor-6-fluorphenyl)acetamido]pyridin-2-yl}-N-(2,4-dimethylphenyl)acetamide] |
| 104 | 0.526 | CC(=O)N(c1cc(NC(=O)Cc2c(Cl)cccc2Cl)ccn1)c1ccc(C)cc1C [Example 173, N-{4-[2-(2,6-Dichlorphenyl)acetamido]pyridin-2-yl}-N-(2,4-dimethylphenyl)acetamide] |
| 103 | 0.528 | CC(=O)N(c1cc(NC(=O)Cc2ccc(F)cc2Cl)ccn1)c1ccc(C)cc1C [Example 174, N-{4-[2-(2-Chlor-4-fluorphenyl)acetamido]pyridin-2-yl}-N-(2,4-dimethylphenyl)acetamide] |
| 101 | 0.567 | CC(=O)N(c1cc(C)cc(C#N)c1)c1cc(NC(=O)Cc2c(Cl)cccc2Cl)ccn1 [Example 176, N-(3-Cyan-5-methylphenyl)-N-{4-[2-(2,6-dichlorphenyl)acetamido]pyridin-2-yl}acetamide] |
| 98 | 0.673 | CC(=O)N(c1cc(C)cc(C#N)c1)c1cc(NC(=O)Cc2c(F)cccc2Cl)ccn1 [Example 179, N-{4-[2-(2-Chlor-6-fluorphenyl)acetamido]pyridin-2-yl}-N-(3-cyan-5-methylphenyl)acetamide] |
| 101 | 0.569 | CC(=O)N(c1ccc(C)c(Cl)c1)c1cc(NC(=O)Cc2ccccc2Cl)ccn1 [Example 180, N-(3-Chlor-4-methylphenyl)-N-{4-[2-(2-chlorphenyl)acetamido]pyridin-2-yl}acetamide] |
| 101 | 0.574 | CC(=O)N(c1ccc(C)c(Cl)c1)c1cc(NC(=O)Cc2cccc(F)c2Cl)ccn1 [Example 181, N-{4-[2-(2-Chlor-3-fluorphenyl)acetamido]pyridin-2-yl}-N-(3-chlor-4-methylphenyl)acetamide] |
| 102 | 0.593 | CC(=O)N(c1ccc(C)c(Cl)c1)c1cc(NC(=O)Cc2c(Cl)cccc2Cl)ccn1 [Example 182, N-(3-Chlor-4-methylphenyl)-N-{4-[2-(2,6-dichlorphenyl)acetamido]pyridin-2-yl}acetamide] |
| 101 | 0.599 | CC(=O)N(c1ccc(C)c(Cl)c1)c1cc(NC(=O)Cc2c(F)cccc2Cl)ccn1 [Example 183, N-{4-[2-(2-Chlor-6-fluorphenyl)acetamido]pyridin-2-yl}-N-(3-chlor-4-methylphenyl)acetamide] |
| 104 | 0.893 | CC(=O)N(c1cc(NC(=O)Cc2c(F)cccc2Cl)ccn1)c1ccc(F)c(C)c1C [Example 184, N-{4-[2-(2-Chlor-6-fluorphenyl)acetamido]pyridin-2-yl}-N-(4-fluor-2,3-dimethylphenyl)acetamide] |
| 101 | 0.438 | CC(=O)N(c1ccccc1)c1cc(NC(=O)Cc2c(Cl)cccc2Cl)cnn1 [Example 185, N-{5-[2-(2,6-dichlorophenyl)acetamido]pyridazin-3-yl}-N-phenylacetamide] |

The next lines start with the compound.

| SMILES | Human P2X4 HEK Cells (FLIPR Assay) avg Efficacy [%] | IC50 [µM] |
| --- | --- | --- |
| COc1cc(F)cc(N(C(C)=O)c2cc(NC(=O)Cc3cccc(F)c3Cl)ccn2)c1 [Example 160, N-{4-[2-(2-Chlor-3-fluorphenyl)acetamido]pyridin-2-yl}-N-(3-fluor-5-methoxyphenyl)acetamide] | 101 | 0.383 |
| COc1cc(F)cc(N(C(C)=O)c2cc(NC(=O)Cc3ccccc3Cl)ccn2)c1 [Example 161, N-{4-[2-(2-Chlorphenyl)acetamido]pyridin-2-yl}-N-(3-fluor-5-methoxyphenyl)acetamide] | 101 | 0.479 |
| COc1cc(F)cc(N(C(C)=O)c2cc(NC(=O)Cc3ccc(F)cc3Cl)ccn2)c1 [Example 163, N-{4-[2-(2-Chlor-4-fluorphenyl)acetamido]pyridin-2-yl}-N-(3-fluor-5-methoxyphenyl)acetamide] | 100 | 0.665 |
| CC(=O)N(c1cc(NC(=O)Cc2ccccc2Cl)ccn1)c1ccccc1C(F)F [Example 166, N-{4-[2-(2-Chlorphenyl)acetamido]pyridin-2-yl}-N-[2-(difluormethyl)phenyl]acetamide] | 97 | 0.663 |
| CC(=O)N(c1cc(NC(=O)Cc2cccc(F)c2Cl)ccn1)c1ccccc1C(F)F [Example 167, N-{4-[2-(2-Chlor-3-fluorphenyl)acetamido]pyridin-2-yl}-N-[2-(difluormethyl)phenyl]acetamide] | 100 | 0.677 |
| CC(=O)N(c1cc(NC(=O)Cc2ccc(F)cc2Cl)ccn1)c1ccccc1C(F)F [Example 169, N-{4-[2-(2-Chlor-4-fluorphenyl)acetamido]pyridin-2-yl}-N-[2-(difluormethyl)phenyl]acetamide] | 101 | 0.813 |
| CC(=O)N(c1cc(C)cc(C#N)c1)c1cc(NC(=O)Cc2ccccc2Cl)ccn1 [Example 175, N-{4-[2-(2-Chlorphenyl)acetamido]pyridin-2-yl}-N-(3-cyan-5-methylphenyl)acetamide] | 97 | 0.516 |
| CC(=O)N(c1cc(C)cc(C#N)c1)c1cc(NC(=O)Cc2cccc(F)c2Cl)ccn1 [Example 177, N-{4-[2-(2-Chlor-3-fluorphenyl)acetamido]pyridin-2-yl}-N-(3-cyan-5-methylphenyl)acetamide] | 96 | 0.578 |
| CC(=O)N(c1cc(C)cc(C#N)c1)c1cc(NC(=O)Cc2ccc(F)cc2Cl)ccn1 [Example 178, N-{4-[2-(2-Chlor-4-fluorphenyl)acetamido]pyridin-2-yl}-N-(3-cyan-5-methylphenyl)acetamide] | 99 | 0.621 |
| CC(=O)N(c1ccccc1)c1cc(NC(=O)Cc2cccc(F)c2Cl)cnn1 [Example 186, N-{5-[2-(2-chloro-3-fluorophenyl)acetamido]pyridazin-3-yl}-N-phenylacetamide] | 99 | 0.655 |
| CC(=O)N(c1ccccc1)c1cc(NC(=O)Cc2ccccc2Cl)cnn1 [Example 187, N-{5-[2-(2-chlorophenyl)acetamido]pyridazin-3-yl}-N-phenylacetamide] | 100 | 0.7 |
| CC(=O)N(c1ccccc1)c1cc(NC(=O)Cc2ccc(F)cc2Cl)cnn1 [Example 188, N-{5-[2-(2-chloro-4-fluorophenyl)acetamido]pyridazin-3-yl}-N-phenylacetamide] | 98 | 0.829 |
| CC(=O)N(c1ccc(F)cc1)c1cc(NC(=O)Cc2c(F)cccc2Cl)cnn1 [Example 189, N-{5-[2-(2-chloro-6-fluorophenyl)acetamido]pyridazin-3-yl}-N-(4-fluorophenyl)acetamide] | 93 | 0.654 |
